# Measured values as given in patent US5610310A, “Cyclic lipid derivatives as potent PAF antagonists” (Pohang Iron & Steel Co., Ltd, priority 1995, dated 1997).
# How the values were obtained:
# [1] = tested on: PAF-induced platelet aggregation, rabbit platelet-rich plasma; test: Inhibitory action on PAF-induced platelet aggregation; format: cell-based, rabbit (New Zealand white); conditions: Oryctolagus cuniculus, rabbit PRP, PAF 5×10^-9 M, 37° C.
# Description: Inhibitory action on PAF-induced platelet aggregation Blood was collected from the […] of conscious New Zealand white male rabbits weighing 2 to 3 kg using citric acid as an anticoagulant (one volume pan of 3% citric acid relative to 9 volume parts of the whole blood). […] PRP was diluted with PPP to adjust the number of platelets to about 3×10^5 /μl. […] Platelet aggregation was then examined by means of turbidimetry [Born, Nature, 194, 927(1962)] with dual channel aggegometer (Chrono-Log. Corp., Havertown, Pa.). As the control, physiological saline without test sample was used. The platelet aggregation inhibiting activities of the test sample are expressed as IC50, that is the concentration of the compound at which 50% of the aggregation is inhibited.
# [2] = molecular target: T1, PAF receptor (rabbit platelet membranes) (Oryctolagus cuniculus, UniProt G1TEI7); test: PAF Receptor Binding Assay; conditions: 0.6 nM [^3 H]C18 -PAF, 60 minutes, room temperature, calculated as IC50/2
# T1 construct: Rabbit platelets were prepared by centrifugation and washing; tissue Pel-Freez (Rogers, AR); host or cells: rabbit platelets (washed, from citrated whole blood; lysed membranes)
# T1 sequence (G1TEI7 1-342): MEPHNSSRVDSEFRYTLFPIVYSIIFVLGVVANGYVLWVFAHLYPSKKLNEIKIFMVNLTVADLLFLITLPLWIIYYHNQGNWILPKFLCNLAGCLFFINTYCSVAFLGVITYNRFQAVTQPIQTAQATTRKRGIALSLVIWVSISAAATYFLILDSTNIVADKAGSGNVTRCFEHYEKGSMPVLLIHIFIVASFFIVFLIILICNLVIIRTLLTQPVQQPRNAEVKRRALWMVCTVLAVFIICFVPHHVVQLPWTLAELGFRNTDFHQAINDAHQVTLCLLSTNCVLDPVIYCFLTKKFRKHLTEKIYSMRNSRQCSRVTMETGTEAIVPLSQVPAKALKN
# Description: PAF Receptor Binding Assay Citrated whole rabbit blood was obtained from Pel-Freez(Rogers, AR). Rabbit platelets were prepared by centrifugation and washing. The platelets were lysed by freeze-thawing and sonification; Platelet membranes were prepared by centrifugation and washing. Final membrane preparation were stored frozen in 10 mM Tris/5 mM MgCl2 /2 mM EDTA (TME buffer, pH 7.0) with 0.25M sucrose added for membrane stabilization. […] The final volume of the assay was 100 μl. […] The […] and removed. The bound radioactivity was quantitated with a Berthold TLC-Linear Analyzer model LB2842. […] Experiments were repeated at least once. […] Ki values of inhibitory binding constants were calculated according to the methods of the literature[Cheng et al., Biochem.
SMILES,IC50 [1] [µM],Ki [2] [µM]
"CCCCCCCCCCCCCCCCCCNC(=O)OC[C@H]1C[C@H](COC(=O)N(Cc2cccc[n+]2CC)C(C)=O)S1 (relative stereo) [Example 27, trans-2-[[N-Acetyl-N-[[[4-[[(Octadecylcarbamoyl)oxy]methyl]-2-thietanyl]methoxy]carbonyl]amino]methyl]-1-ethyl-pyridinium chloride]",0.057,0.0043
"CCCCCCCCCCCCCCCCCCNC(=O)OC[C@@H]1C[C@H](COC(=O)N(Cc2cccc[n+]2CC)C(C)=O)S1 (relative stereo) [Example 28, cis-2-[[N-Acetyl-N-[[[4-[[(octadecylcarbamoyl)oxy]methyl]-2-thietanyl]methoxy]carbonyl]amino]methyl]-1-ethyl-pyridinium chloride]",0.061,0.0098
"CCCCCCCCCCCCCCCCNC(=O)OC[C@H]1C[C@H](COC(=O)N(Cc2cccc[n+]2CC)C(C)=O)S1 (relative stereo) [Example 29, trans-2-[[N-Acetyl-N-[[[4-[[(hexadecylcarbamoyl)oxy]methyl]-2-thietanyl]methoxy]carbonyl]amino]methyl]-1-ethyl-pyridinium chloride]",0.021,0.0098
CCCCCCCCCCCCCCCCCCNC(=O)OC[C@@H]1C[C@@H](COC(=O)N(Cc2cccc[n+]2CC)C(=O)c2ccccc2OC)S1 (relative stereo) [Example 30],0.084,–
"CCCCCCCCCCCCCCCCNC(=O)OC[C@@H]1C[C@@H](COC(=O)N(Cc2cccc[n+]2CC)C(=O)c2ccccc2OC)S1 (relative stereo) [Example 31, trans-2-[[N-(2-Methoxy)benzoyl-N-[[[4-[[(hexadecylcarbamoyl)oxy]methyl]-2-thietanyl]methoxy]carbonyl]amino]methyl]1-ethyl-pyridinium chloride]",0.069,–
"CCCCCCCCCCCCCCCCOC[C@H]1C[C@H](COC(=O)N(Cc2cccc[n+]2CC)C(C)=O)S1 (relative stereo) [Example 32, trans-2-[[N-Acetyl-N-[[[4-[(hexadecyloxy)methyl]-2-thietanyl]methoxy]carbonyl]amino]methyl]-1-ethyl-pyridinium chloride]",0.052,0.02
"CCCCCCCCCCCCCCCCCCNC(=O)OC[C@H]1C[C@H](COC(=O)CCCC[n+]2cccc3ccccc32)S1 (relative stereo) [Example 34, trans-N-[4-[[[4-[[(Octadecylcarbamoyl)oxy]methyl]-2-thietanyl]methoxy]carbonyl]butyl]quinolinium bromide]",0.35,–
"CCCCCCCCCCCCCCCCCCNC(=O)OC[C@H]1C[C@H](COCCCC[n+]2cccc3ccccc32)S1 (relative stereo) [Example 35, trans-N-[4-[[4-[[(Octadecylcarbamoyl)oxy]methyl]-2-thietanyl]methoxy]butyl]quinolinium bromide]",0.275,–
"CCCCCCCCCCCCCCCCCCNC(=O)OC[C@@H]1C[C@@H](COC(=O)N(Cc2cccc[n+]2CC)C(C)=O)N1C(C)=O (relative stereo) [Example 43, 2-[[N-Acetyl-N-[[[4-[[(octadecylcarbamoyl)oxy]methyl]-1-acetylazetidine-2-yl]methoxy]carbonyl]amino]methyl]-1-ethyl-pyridinium chloride]",0.029,0.035
"CCCCCCCCCCCCCCCCNC(=O)OCC1(COC(=O)N(Cc2cccc[n+]2CC)C(C)=O)COC1 [Example 8, 2-[[N-Acetyl-N-[[[3-[[(hexadecylcarbamoyl)oxy]methyl]-3-oxetanyl]methoxy]carbonyl]amino]methyl]-1-ethyl-pyridinium iodide]",0.093,0.095
"CCCCCCCCCCCCCCCCOCC1(COC(=O)N(Cc2cccc[n+]2CC)C(C)=O)COC1 [Example 9, 2-[[N-Acetyl-N-[[[3-[(hexadecyloxy)methyl]-3-oxetanyl]methoxy]carbonyl]amino]methyl]-1-ethyl-pyridinium iodide]",0.219,0.11
"CCCCCCCCCCCCCCCCCCNC(=O)OCC1(COC(=O)N(Cc2cccc[n+]2CC)C(C)=O)CCCC1 [Example 16, 2-[[N-Acetyl-N-[[[1-[[(octadecylcarbamoyl)oxy]methyl]-1-cyclopentyl]methoxy]carbonyl]amino]methyl]-1-ethyl-pyridinium iodide]",0.573,0.0038
"CCCCCCCCCCCCCCCCCCNC(=O)OC[C@H]1C[C@H](COC(=O)N(Cc2cccc[n+]2CC)C(C)=O)C1 [Example 19, trans-2-[[N-Acetyl-N-[[[3-[[(octadecylcarbamoyl)oxy]methyl]-1-cyclobutyl]methoxy]carbonyl]amino]methyl]-1-ethyl-pyridinium iodide]",0.056,0.0043
"CCCCCCCCCCCCCCCCNC(=O)OCC1(COC(=O)N(Cc2cccc[n+]2CC)C(C)=O)CCCC1 [Example 20, 2-[[N-Acetyl-N-[[[1-[[(hexadecylcarbamoyl)oxy]methyl]-1-cyclopentyl]methoxy]carbonyl]amino]methyl]-1-ethyl-pyridinium iodide]",0.35,0.0012
"CCCCCCCCCCCCCCCCCCNC(=O)OCC1(COC(=O)CCCC[n+]2ccsc2)CCCC1 [Example 22, 3-[4-[[[1-[[(Octadecylcarbamoyl)oxy]methyl]-1-cyclopentyl]methoxy]carbonyl]butyl]thiazolium bromide]",1.14,–
"CCCCCCCCCCCCCCCCCCNC(=O)OCC1(COC(=O)CCCC[n+]2cccc3ccccc32)CCCC1 [Example 23, N-[4-[[[1-[[(Octadecylcarbamoyl)oxy]methyl]1-cyclopentyl]methoxy]carbonyl]butyl]quinolinium bromide]",0.095,0.0094
"CCCCCCCCCCCCCCCCCCNC(=O)OCC1(COC(=O)N(Cc2cccc[n+]2CC)C(C)=O)C[S+]([O-])C1 (stereo not shown) [Example 37, 2-[[N-Acetyl-N-[[[3-[[(octadecylcarbamoyl)oxy]methyl]thietane 1-oxide-3-yl]methoxy]carbonyl]amino]methyl]-1-ethyl-pyridinium iodide]",0.125,0.0093
"CCCCCCCCCCCCCCCCCCNC(=O)OCC1(COC(=O)N(Cc2cccc[n+]2CC)C(C)=O)CS(=O)(=O)C1 [Example 38, 2-[[N-Acetyl-N-[[[3-[[(octadecylcarbamoyl)oxy]methyl]thietane 1,1-dioxide-3-yl]methoxy]carbonyl]amino]methyl]-1-ethyl-pyridinium iodide]",0.178,0.278
"CCCCCCCCCCCCCCCCCCNC(=O)OCC1(COC(=O)CCCCC[n+]2cccc3ccccc32)CSC1 [Example 41, N-[5-[[[3-[[(Octadecylcarbamoyl)oxy]methyl]-3-thietanyl]methoxy]carbonyl]pentyl]quinolinium bromide]",0.057,0.03
"CCCCCCCCCCCCCCCCOCC1(COC(=O)CCCC[n+]2cccc3ccccc32)CSC1 [Example 42, N-[4-[[[3-[(Hexadecyoxy)methyl]-3-thietanyl]methoxy]carbonyl]butyl]quinolinium bromide]",0.658,–
